US9956267B2, “Method of treating skeletal dysplasias using vessel dilator” (University of South Florida, priority 2010, dated 2018)
Several values for one entry are separate records, joined by “and”; a condition that tells them apart may be missing. Identical values can stand only once. Positions of bridges follow the written chain, without caps; N, C: chain ends. No end group written: not given here.

Columns and labels:
[1] = in vivo; cited from earlier work
[2] = test system: MEK 1/2 kinases; conditions: proliferating prostate cancer cells; cited from earlier work
[3] = duration of biologic effects of natriuretic peptides; assay type: in vivo, human; conditions: versus CNP
Method: (§1) CNP and ANP are ring-structured natriuretic peptides with very short half-lives of <3 min in the circulation (Kalra P R, et al. 2001 The role of C-natriuretic peptide in cardiovascular medicine. Eur Heart J 22:997-1007, Teixeira C C, et al. 2008 Nitric oxide, C-type natriuretic peptide and cGMP as regulators of endochondral ossification. Dev Biol 319:171-178; Nakao K, et al. 1986 The pharmacokinetics of α-human natriuretic polypeptide in healthy subjects. Eur J Clin Pharmacol 31:101-103; Yandle T G, et al. 1986 Metabolic clearance rate and plasma half life of alpha-human atrial natriuretic peptide in man. Life Sci 38:1827-1833). Their biologic effects last for <30 min. […] J Pharmacol Exp Ther 282:603-608) and its biologic effects last >6 h (Vesely D L, et al. 1994 Three peptides from the atrial natriuretic factor prohormone amino terminus lower blood pressure and produce diuresis, natriuresis, and/or kaliuresis in humans. Circulation 90:1129-1140).
(§2) The gene for CNP is expressed in bone (Mericq V, et al. 2000 Regulation of fetal rat bone growth by C-type natriuretic peptide and cGMP. Pediatr Res 47:189-193) to allow it to be an autocrine/paracrine regulator of bone. […] Life Sci 38:1827-1833; Ackerman B H, et al. 1997 Disposition of vessel dilator and long-acting natriuretic peptide in healthy humans after a one-hour infusion. […]

[4] = test system: human osteoblast cells (ATCC number CRL-11372); experiment: Cell Titer 96 Aqueous One Solution (MTS) cell proliferation assay of human osteoblasts; assay type: cell-based; conditions: for enhancement of human osteoblast proliferation compared with controls: absorbance at 490 nm at day 7
Method: A cell line (ATCC number CRL-11372) of human osteoblast cells was purchased from the American Type Culture […] (ATCC, Manassas, Va.). Propagation of the human osteoblast cells was in a 1:1 mixture of Ham's F12 Medium and Dulbecco's Modified Eagles Medium (DMEM) with 2.5 mM L-glutamine without phenol red. Base medium was supplemented with 0.3 mg/mL of Geneticin (G418) antibiotic and 10% fetal bovine serum (Harris S A, et al. 1995 Developmental and characterization of a conditionally immortalized human fetal osteoblastic cell line. J Bone Miner Res 10:178-186). Cells were incubated at a temperature of 34° C. in 5% CO2 at which they have rapid cell division, doubling every 36 hours (Harris S A, et al. 1995 Developmental and characterization of a conditionally immortalized human fetal osteoblastic cell line. J Bone Miner Res 10:178-186). […] Cells were dispensed into new flasks with subculturing every 6-8 days. The medium was changed every 3 days.
After the osteoblast cells were subcultured for 24 h, ˜5000 cells in 200 μL of the above media were then seeded (day 1) into 96-well plates (Nuclon, Roskilde, Denmark). After overnight incubation at 34° C. in 5% CO2, the media was removed (day 2), and 50 μL of fresh media was added to control wells, blank wells (with no cells inside), and 50 μL of media with 10 picomolar (pM), 100 pM, 1 nanomolar (nM), or 10 nM of CNP or vessel dilator. At day 5, in these experiments, 50 μL of fresh media was added to the controls, blank wells, and 50 μL of media with 1 nM, 10 nM, 10 pM, and 100 pM of the respective natriuretic hormones for a total volume of 100 μL of media in each well. At day 7, 20 μL of Cell Titer 96® Aqueous One Solution (Promega Corporation, Madison, Wis.) was added to each well containing 1004 of medium and allowed to incubate for 4 h in 5% CO2 atmosphere before recording absorbance at 490 nm with a 96-well plate reader (Cory A H, et al. 1991 Use of aqueous soluble tetrazolium/formazan assay for growth assays in culture. Cancer Commun 3:207-212). There were 15 observations of vessel dilator at each concentration and 16 observations of CNP at each concentration. The peptide hormones used in this investigation were from Phoenix Pharmaceuticals, Inc., Burlingame, Calif.
Cell proliferation of human osteoblasts was examined with the Cell Titer 96 Aqueous One Solution cell proliferation assay (Promega Corp.). This colorimetric method determines the viable cells' proliferation by recording the absorption at 490 nm with a 96-well plate reader (Cory A H, et al. 1991 Use of aqueous soluble tetrazolium/formazan assay for growth assays in culture. Cancer Commun 3:207-212) after incubating the respective cells at 37° C. for 4 h in a 5% CO2 atmosphere.
Approximately 5000 human osteoblast cells were in each well. The proliferation assay detects the number of viable cells in proliferation using a tetrazolium compound (3-[4,5-dimethylthiazol-2-yl]-5-[3-carboxymethoxyphenyl]-2-[4-sulfophenyl]-2H-tetrazolium, inner salt; MTS) and an electron coupling reagent [phenazine ethosulfate (PES)]. PES has enhanced chemical stability, which allows it to be combined with MTS to form a stable solution (Cory A H, et al. 1991 Use of aqueous soluble tetrazolium/formazan assay for growth assays in culture. Cancer Commun 3:207-212). The MTS tetrazolium compound (Owen's reagent) is bioreduced by living cells into a colored formazan product that is measurable at […] in a spectrophotometer, thereby eliminating any nonviable (i.e. dead) cells that would not be proliferating (Cory A H, et al. 1991 Use of aqueous soluble tetrazolium/formazan assay for growth assays in culture. Cancer Commun 3:207-212). This method measure only viable cells' proliferation as dead cells are unable to reduce the MTS tetrazolium compound to a colored formazan product.
All data are expressed as mean±SEM. Statistical significance was determined by the Mann-Whitney test (also called Wilcoxon rank-sum test) for different sample sizes. […]

[5] = circulatory half-life of natriuretic peptides; assay type: in vivo, human; conditions: vessel dilator versus CNP
Method: as §1, §2

[6] = test system: ERK 1/2 kinases; conditions: cited from earlier work
[7] = in vivo; cited from earlier work; remark: listed apart in the source
[8] = test system: ERK 1/2 kinases; conditions: ATDC5 cells, mouse chondrogenic cell line; cited from earlier work
[9] = test system: cyclic GMP (cGMP) in chondrocytes; conditions: CNP versus ANP; cited from earlier work

For “Vessel dilator: linear natriuretic peptide synthesized by the ANP gene; cardiac hormone, molecular weight 3878.31 (EVVPPQVLSEPNEEAGAALSPLPEVPPWTGEVSPAQR; Vessel dilator; UniProt P01160 56-92, looked up)”, the circulatory half-life [1] is given as 1.78 h, the “duration of biologic effect” value [1] is given as greater than 6 h and the “inhibition of activation, i.e. phosphorylation, of MEK 1/2 kinases” value [2] is given as 98%. The “biologic effects longer than CNP, ANP or BNP” value [3] was 12 times and > 12 times, the “enhancement of human osteoblast proliferation compared with controls” value (“enhancement … compared with controls” for short) ([4]; 10 pM peptide) was 8% and the “enhancement … compared with controls” value ([4]; 100 pM peptide) was 7%. For the same compound, the “enhancement … compared with controls” value ([4]; 1 nM peptide) was 6%, the “enhancement … compared with controls” value ([4]; 10 nM peptide) was 8% and the “stimulates osteoblasts at lower concentrations than CNP” value ([4]; compared with CNP) was 1000. The “circulating half-life longer than CNP” value [5] was 36 fold, the “effect on mitogen (epidermal growth factor, EGF) stimulation of ERK 1/2 kinases” value ([6]; EGF stimulation) was “completely blocks” and the “inhibition of the phosphorylation of basal activity of ERK 1/2 kinases” value ([6]; proliferating cells, basal activity) was 96%. The “duration of biologic effects” value [7] was greater than 6 h.
In the case of `Nc1nc2c(nc(Br)n2[C@@H]2O[C@@H]3COP(=O)(O)O[C@H]3[C@H]2O)c(=O)[nH]1` [8-bromo cGMP], the “effect on mitogen- (fibroblast growth factor) stimulated ERK 1/2 kinases' phosphorylation” value [8] is listed as “inhibit”.
For “CNP: 22 amino acid peptide having a 17-amino acid ring, generated from the natriuretic peptide precursor C gene (GLSKGCFGLKLDRIGSMSGLGC; disulfide 6-22 (inferred); UniProt P23582 105-126, looked up) [reference compound]”, the “effect on mitogen- (fibroblast growth factor) stimulated ERK 1/2 kinases' phosphorylation” value [8] is given as “inhibit”, the “stimulation of cGMP in chondrocytes relative to ANP” value [9] is given as 10 fold and the “enhancement … compared with controls” value ([4]; 10 pM peptide) is given as “no significant enhancement”. The “enhancement … compared with controls” value ([4]; 10 nM peptide) was 27%.
In the case of “BNP: natriuretic peptide named with CNP and ANP, biologic effects less than 30 minutes [reference compound]”, the “duration of biologic effects” value [7] is given as “less than 30 min”.
